Reference: PubChem BioAssay (NCI)
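1) Cells in 96-well plates. 2) Compound, 48 h, 5 concentrations. 3) Linear interpolation between surrounding doses. 4) Unreached endpoint = highest concentration. GI50 marks 50% less growth. TGI marks complete inhibition of growth.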

How the values were obtained:
Test in all cases: NCI anticancer screen, dose series, 48 h
[1] = tested on: NCI-H23 lung
[2] = tested on: SF-268 CNS
[3] = tested on: M14 melanoma
[4] = tested on: BT-549 breast
[5] = tested on: SK-OV-3 ovarian
[6] = tested on: SF-539 CNS
[7] = tested on: IGROV1 ovarian
[8] = tested on: MDA-MB-231 breast
[9] = tested on: ACHN renal
[10] = tested on: CCRF-CEM leukemia
[11] = tested on: MDA-MB-435
[12] = tested on: K-562 leukemia
[13] = tested on: NCI-H522 lung
[14] = tested on: HCC-2998 colon
[15] = tested on: DU-145 prostate
[16] = tested on: 786-0 renal
[17] = tested on: SR leukemia
[18] = tested on: LOX IMVI melanoma
[19] = tested on: HOP-92 NSCLC
[20] = tested on: EKVX NSCLC
[21] = tested on: NCI-H226 lung
[22] = tested on: CAKI-1 renal
[23] = tested on: UACC-257 melanoma
[24] = tested on: OVCAR-8 ovarian
[25] = tested on: SNB-19 CNS
[26] = tested on: SW-620 colon
[27] = tested on: HL-60(TB) leukemia
[28] = tested on: RPMI-8226 leukemia
[29] = tested on: RXF 393 renal
[30] = tested on: SK-MEL-28 melanoma
[31] = tested on: UACC-62 melanoma
[32] = tested on: NCI-H460 lung
[33] = tested on: A549 NSCLC
[34] = tested on: SK-MEL-2 melanoma
[35] = tested on: HOP-62 NSCLC
[36] = tested on: SK-MEL-5 melanoma
[37] = tested on: OVCAR-4 ovarian
[38] = tested on: HCT-116 colon
[39] = tested on: U251 CNS
[40] = tested on: NCI/ADR-RES ovarian
[41] = tested on: SNB-75 CNS
[42] = tested on: OVCAR-3 ovarian
[43] = tested on: SF-295 CNS
[44] = tested on: TK-10 renal
[45] = tested on: MOLT-4 leukemia
[46] = tested on: MCF7 breast
[47] = tested on: HT29 colon
[48] = tested on: MDA-MB-468 breast
[49] = tested on: A498 renal
[50] = tested on: COLO 205 colon
[51] = tested on: PC-3 prostate
[52] = tested on: SN12C renal
[53] = tested on: OVCAR-5 ovarian
[54] = tested on: UO-31 renal
[55] = tested on: MALME-3M melanoma
[56] = tested on: HCT-15 colon
[57] = tested on: KM12 colon
[58] = tested on: HS 578T breast

Work on `COc1ccc2[nH]c(O)c(N=Nc3nc(-c4ccc(Br)cc4)cs3)c2c1` yielded a GI50 [1] of 3.51 µM, a TGI [1] of 14.2 µM and a GI50 [2] of 6.49 µM. The TGI [2] was 36.6 µM, the GI50 [3] was 2.81 µM and the TGI [3] was 10.3 µM. The GI50 [4] was 7.26 µM, the TGI [4] was 36.6 µM and the GI50 [5] was 6.16 µM. The TGI [5] was 50.3 µM, the GI50 [6] was 1.92 µM and the TGI [6] was 3.95 µM. For the same compound, the GI50 [7] was 5.41 µM, the TGI [7] was over 100 µM and the GI50 [8] was 5.35 µM. For the same compound, the TGI [8] was 20.7 µM, the GI50 [9] was 3.18 µM and the TGI [9] was 10.1 µM. The GI50 [10] was 6.56 µM, the TGI [10] was over 100 µM and the GI50 [11] was 6.64 µM. It also gave a TGI [11] of over 100 µM, a GI50 [12] of 4.35 µM and a TGI [12] of over 100 µM. The GI50 [13] was 2.5 µM, the TGI [13] was 39 µM and the GI50 [14] was 4.25 µM. It also gave a TGI [14] of over 100 µM, a GI50 [15] of 4.54 µM and a TGI [15] of 32.6 µM. The GI50 [16] was 1.65 µM, the TGI [16] was 3.22 µM and the GI50 [17] was 4.73 µM. For the same compound, the TGI [17] was over 100 µM, the GI50 [18] was 3.77 µM and the TGI [18] was 12.5 µM. It also gave a GI50 [19] of 1.96 µM, a TGI [19] of 5.21 µM and a GI50 [20] of 3.63 µM. For the same compound, the TGI [20] was 27.9 µM, the GI50 [21] was 4.44 µM and the TGI [21] was 19.5 µM. It also gave a GI50 [22] of 5.1 µM, a TGI [22] of 32.7 µM and a GI50 [23] of 8.64 µM. It also gave a TGI [23] of over 100 µM, a GI50 [24] of 3.07 µM and a TGI [24] of 9.52 µM. It also gave a GI50 [25] of 8.01 µM, a TGI [25] of 52.4 µM and a GI50 [26] of 3.06 µM. It also gave a TGI [26] of over 100 µM, a GI50 [27] of 87.8 µM and a TGI [27] of over 100 µM. For the same compound, the GI50 [28] was 3.62 µM, the TGI [28] was over 100 µM and the GI50 [29] was 2.29 µM. It also gave a TGI [29] of 5.07 µM, a GI50 [30] of 2.01 µM and a TGI [30] of 4.19 µM. It also gave a GI50 [31] of 2.97 µM, a TGI [31] of over 100 µM and a GI50 [32] of 2.48 µM. The TGI [32] was 6.14 µM, the GI50 [33] was 3.07 µM and the TGI [33] was 12.9 µM. For the same compound, the GI50 [34] was 2.6 µM, the TGI [34] was 8.11 µM and the GI50 [35] was 6.51 µM. The TGI [35] was 36 µM, the GI50 [36] was 4.72 µM and the TGI [36] was 30.9 µM. The GI50 [37] was 1.73 µM, the TGI [37] was 3.23 µM and the GI50 [38] was 2.35 µM. It also gave a TGI [38] of 5.72 µM, a GI50 [39] of 2.96 µM and a TGI [39] of 9.25 µM. For the same compound, the GI50 [40] was 2.1 µM, the TGI [40] was 4.58 µM and the GI50 [41] was 3 µM. It also gave a TGI [41] of 21.3 µM, a GI50 [42] of 2.91 µM and a TGI [42] of 10.4 µM. The GI50 [43] was 11.3 µM, the TGI [43] was 39.3 µM and the GI50 [44] was 14.7 µM. For the same compound, the TGI [44] was 89.9 µM, the GI50 [45] was 3.33 µM and the TGI [45] was over 100 µM. It also gave a GI50 [46] of 2.98 µM, a TGI [46] of 79.8 µM and a GI50 [47] of 7.18 µM. It also gave a TGI [47] of over 100 µM, a GI50 [48] of 2.17 µM and a TGI [48] of 5.81 µM. The GI50 [49] was 2.38 µM, the TGI [49] was 6.5 µM and the GI50 [50] was 5.6 µM. It also gave a TGI [50] of over 100 µM, a GI50 [51] of 5.22 µM and a TGI [51] of 60.1 µM. For the same compound, the GI50 [52] was 3.16 µM, the TGI [52] was 11.1 µM and the GI50 [53] was 5.77 µM. It also gave a TGI [53] of 33.8 µM, a GI50 [54] of 9.13 µM and a TGI [54] of 28.2 µM. It also gave a GI50 [55] of 1.69 µM, a TGI [55] of 3.2 µM and a GI50 [56] of 4.43 µM. The TGI [56] was 30.6 µM, the GI50 [57] was 6.23 µM and the TGI [57] was over 100 µM. It also gave a GI50 [58] of 7.34 µM and a TGI [58] of over 100 µM.
